Source: US7976863B2, “Biomedical devices with antimicrobial coatings” (priority 2002, dated 2011)
Ends that are not written are not given here.

How the values were obtained:
Format in all cases: cell-based
P. aeruginosa 6294 [1] = details: for minimum concentration required to inhibit bacterial growth, P.a 6284: MIC, peptide in solution, 18 hours at 35° C.
Experimental: (§1) To assess the effect of cationic proteins/peptides in solution against bacterial cells, Psudomonas aeruginosa 6294 and Staphylacoccus aureus 31 cells were grown as for 18 hours in Tryptone Soya Broth (TSB) at 35° C. The cells were then harvested by centrifugation and washed twice in phosphate buffered saline (PBS; NaCl 8 g/l; KCl 0.2 g/l; Na2HPO4 1.15 g/l; KH2PO4 0.2 g/l). The cells were then re-suspended to OD 0.1 at 660 nm in PBS. The cationic peptide was serially diluted from 1 mg/ml and dilutions were added to wells in a 96 well microtitre plate or into 5 ml disposable test-tubes. Controls were bacteria without peptides. Bacteria were incubated for 18 hours at 35° C. and turbidity was measured at 660 nm. A lack of turbidity in the test-tube corresponding to the peptide dilution was considered to be the minimum inhibitory concentration (“MIC”).

P. aeruginosa 15442 [2] = test: MIC in solution (tube/microtitre turbidity); details: MIC, peptide in solution, 18 hours at 35° C.
S. aureus 31 [3] = test: MIC in solution (tube/microtitre turbidity); details: MIC, peptide in solution, 18 hours at 35° C.
Experimental: as §1

S. aureus CK5 [4] = test: MIC in solution (tube/microtitre turbidity); details: MIC, peptide in solution, 18 hours at 35° C.
P. aeruginosa 6294 [5] = test: Heat stability study: inhibition of growth in solution after autoclaving; details: 1000 μg/ml in PBS mixed with equal volume of bacteria
Experimental: (§2) A heat stability study was conducted to evaluate whether post-exposure of the L-Melimine to autoclaving would alter the ability of the peptide to prevent bacterial growth.
(§3) Bacteria (P. aeruginosa 6294 and S. aureus 31) were grown for 18 hours at 35° C. in TSB, then washed twice in PBS. The bacteria were resuspended in PBS to an optical density of 0.1 at 660 nm. L-Melimine was dissolved in PBS to a concentration of 1000 μg/ml and autoclaved at 121° C. for 15 minutes. Equal volumes of bacterial suspension and L-Melimine were then added together and incubated at 35° C. for periods of up to 72 hours. Controls were non-autoclaved L-Melimine. After 24, 48 and 72 hours, aliquots of the bacteria/L-Melimine solutions were removed and the number of viable bacteria were counted using the standard Miles and Misra plate count assay.

S. aureus 31 [6] = test: as above; details: 1000 μg/ml in PBS mixed with equal volume of bacteria
Experimental: as §2, §3

sheep red blood cells = test: Lysis of sheep red blood cells; details: 37° C. for 4 h, various concentrations
Experimental: FIG. 1 is a graph showing the % lysis sheep red blood cells relative to water for various peptides.
(§4) For in vitro cytotoxic testing, solutions of L-Melimine were prepared in PBS (500 μg/ml, 250 μg/ml, 125 μg/ml and 62.5 μg/ml). Solutions were then diluted 1:3 in tissue culture media (EMEM) and added to murine L929 cells for 48 hours. Cells are rinsed in saline then harvested using 0.25% trypsin for 3-5 minutes at ambient temperature. 1 ml of saline is then added to cells and trypsin mixture, a 500 μl aliquot is added to 19.5 ml of saline and counted in a coulter counter in triplicate. Results are compared to unperturbed cultures as well as positive (cyotoxic) controls. Results are expressed as percentage of non-viable cells (100-number of cells in sample/number of cells in unperturbed cells×100). In addition, the ability of the peptides to lyze sheep red blood cells was examined. The sheep red blood cells were washed and resuspended in PBS. Peptides at various concentrations were added to the red blood cells and incubated at 37° C. for 4 h. 100% lysis was obtained using distilled water and 0% lysis was obtained using PBS. Lysis was measured by measuring the amount of haemoglobin released into the PBS after centrifugation to remove whole red blood cells.

murine L929 cells = test: In vitro cytotoxic testing; details: for % cell inhibition: 48 hours
Experimental: as §4

S. aureus = test system: S. aureus
Experimental: as §1
(§5) L-Melimine was evaluated to determine its potential to induce resistance in P. aeruginosa and S. aureus. Prior to L-Melimine exposure, MICs of both strains were determined as in Example 1. […] Bacteria were grown overnight in TSB. Bacteria were inoculated 1:100 into fresh TSB containing sub-inhibitory levels of L-Melimine and incubated overnight. Bacteria from the broth containing sub-inhibitory levels (column 2, Table 9) were then re-incubated in fresh TSB with the same concentration of L-Melimine. This was repeated for 30 consecutive days. After passaging, a MIC for the bacteria from the last passage was determined. Any increase in MIC would indicate a potential for bacteria to become resistant.

P. aeruginosa = test system: P. aeruginosa
Experimental: as §1, §5

P. aeruginosa 6294 [7] = test: Viable counts of bacteria adhered to peptide-adsorbed Etafilcon A lenses; details: 500 μg/lens adsorbed on Etafilcon lens, vs uncoated control lens
Experimental: (§6) For conducting viable counts, Etafilcon A lenses were removed from the manufacturers vials, washed three times in 1 ml PBS, dried and then coated by pipetting 500 μg L-Melimine onto the contact lenses (melimine was dissolved in […] and air dried onto contact lenses) overnight at ambient temperature in a fume hood. Lenses were rehydrated in PBS for 10 minutes and 0.5 ml of 1×10^8 bacterial cells/ml, including gram-positive S. aureus and gram-negative P. aeruginosa were added to the lenses. After incubation at ambient temperature for either 10 min or 5 hours, the lenses were washed three times in PBS to remove non-adherent or loosely adherent bacteria. Lenses were then homogenized using tissue homogenizer and 1 ml PBS until lens disintegration (about 1-2 minutes). Serial dilutions were then made according to the technique of Miles and Misra and aliquots (20 μL) plated out on nutrient agar. After incubation overnight at 37° C., viable bacteria were determined and results expressed as colony forming units/mm^2 after calculation of the surface area of the lens (approximately 310 mm^2). The effects are calculated based upon comparison to adhesion control lens that was not coated with cationic protein/peptide before bacterial adhesion testing.
(§7) Etafilcon lenses, commercially available from Johnson & Johnson as ACUVUE® Brand contact lenses) were soaked as in Example 2, above, except that the L-melimine concentration was varied: 125 μg, 250 μg or 500 μg/lens. After absorption of L-Melimine onto the hydrogel polymer, the lenses were rehydrated with PBS, and exposed to S. aureus or P. saeruginosa for either 10 minutes or five hours, as described in Example 2. After exposure, the polymer was evaluated for numbers of microorganisms the standard Miles and Misra plate count assay.
(§8) Stock solutions (50 mg/ml) were prepared containing the L-Protattin in distilled water. 500 μg of the stock solution was adsorbed to a contact lens made from Etafilcon A as for L-melamine in Example 2 for 18 hours at ambient temperature in a fume hood. The subsequent experimental details are as described in Example 2, above and viable bacteria was measured.
(§9) Contact lenses were coated and dried (as in Example 2) and D-Melimine applied at a concentration of either 250 μg per lens or 500 μg per lens. D-melimine was made using D-amino acids as for L-melimine using standard peptide synthesis techniques (e.g. Fmoc). Assays for measuring inhibition of bacterial adhesion were performed as in Example 2.

S. aureus 31 [8] = test: as above; details: 500 μg/lens adsorbed on Etafilcon lens, vs uncoated control lens
Experimental: as §6, §7, §8, §9

P. aeruginosa 15442 [9] = test: as above; details: 500 μg/lens adsorbed on Etafilcon A lens, vs uncoated control lens
Experimental: as §6, §8

S. aureus CK5 [10] = test: as above; details: 500 μg/lens adsorbed on Etafilcon A lens, vs uncoated control lens
Experimental: as §6, §8

[11] = Autoclaved at 121° C. for 15 minutes
[12] = Treatment None (non-autoclaved)

Compound: RPRVSRRRRRRGGRRRR [Protamine (1-17), 1-17 segment of protamine, segment B]
- minimum concentration required to inhibit bacterial growth, P.a 6284 (P. aeruginosa 6294 [1]): R (R = resistant, highest concentration of peptide = 1000 ug/Ml)
- minimum concentration required to inhibit bacterial growth, P.a 15442 (P. aeruginosa 15442 [2]): R (R = resistant, highest concentration of peptide = 1000 ug/Ml)
- minimum concentration required to inhibit bacterial growth, S.a. 31 (S. aureus 31 [3]): R (R = resistant, highest concentration of peptide = 1000 ug/Ml)
- minimum concentration required to inhibit bacterial growth, S.a. CK5 (S. aureus CK5 [4]): 1000 µg/mL

Compound: PRRRRSSSRPVRRRRRPRVSRRRRRRGGRRRR [Protamine, full-length protamine comparison]
- minimum concentration required to inhibit bacterial growth, P.a 6284 (P. aeruginosa 6294 [1]): R (R = resistant, highest concentration of peptide = 1000 ug/Ml)
- minimum concentration required to inhibit bacterial growth, S.a. 31 (S. aureus 31 [3]): R (R = resistant, highest concentration of peptide = 1000 ug/Ml)

Compound: TLISWIKNKRKQ [Mellitin (15-26), 15-26 segment of mellitin, segment A]
- minimum concentration required to inhibit bacterial growth, P.a 6284 (P. aeruginosa 6294 [1]): R (R = resistant, highest concentration of peptide = 1000 ug/Ml)
- minimum concentration required to inhibit bacterial growth, P.a 15442 (P. aeruginosa 15442 [2]): R (R = resistant, highest concentration of peptide = 1000 ug/Ml)
- minimum concentration required to inhibit bacterial growth, S.a. 31 (S. aureus 31 [3]): R (R = resistant, highest concentration of peptide = 1000 ug/Ml)
- minimum concentration required to inhibit bacterial growth, S.a. CK5 (S. aureus CK5 [4]): R (R = resistant, highest concentration of peptide = 1000 ug/Ml)

Compound: TLISWIKNKRKQRPRVSRRRRRRGGRRRR [Melimine, TLISWIKNKRKQRPRVSRRRRRRGGRRRR]
- % inhibition of growth @ 24 hours (P. aeruginosa 6294 [5]; [11]): 100 (3) %
- % inhibition of growth @ 48 hours (P. aeruginosa 6294 [5]; [11]): 100 (3) %
- % inhibition of growth @ 72 hours (P. aeruginosa 6294 [5]; [11]): 100 (2) %
- % inhibition of growth @ 24 hours (P. aeruginosa 6294 [5]; [12]): 100 (5) %
- % inhibition of growth @ 48 hours (P. aeruginosa 6294 [5]; [12]): 100 (3) %
- % inhibition of growth @ 72 hours (P. aeruginosa 6294 [5]; [12]): 100 (2) %
- % inhibition of growth @ 24 hours (S. aureus 31 [6]; [11]): 100 (3) %
- % inhibition of growth @ 48 hours (S. aureus 31 [6]; [11]): 100 (3) %
- % inhibition of growth @ 72 hours (S. aureus 31 [6]; [11]): 99 (2) %
- % inhibition of growth @ 24 hours (S. aureus 31 [6]; [12]): 100 (5) %
- % inhibition of growth @ 48 hours (S. aureus 31 [6]; [12]): 100 (3) %
- % inhibition of growth @ 72 hours (S. aureus 31 [6]; [12]): 99 (2) %
- MIC, P. aeruginosa resistant up to (P. aeruginosa 6294 [1]; text summary of Table 1, highest concentration used): > 1000 µg/mL
- hemolysis of red blood cells (FIG. 1, % lysis relative to water) (sheep red blood cells): least amount of hemolysis of any peptide/protein
- % cell inhibition (murine L929 cells; 62.5 μg/ml solution in PBS diluted 1:3 in EMEM): 20%
- % cell inhibition (murine L929 cells; 125 μg/ml solution in PBS diluted 1:3 in EMEM): 8%
- % cell inhibition (murine L929 cells; 250 μg/ml solution in PBS diluted 1:3 in EMEM): 26%
- % cell inhibition (murine L929 cells; 500 μg/ml solution in PBS diluted 1:3 in EMEM): 44%
- cytotoxicity (in words) (murine L929 cells; at 500 μg/ml): marginally cytotoxic
- cytotoxicity (in words) (murine L929 cells; at all other concentrations (250, 125, 62.5 μg/ml)): non-cytotoxic
- MIC post-passage (S. aureus; after 30 consecutive days passage at 30 μg/ml): 63 µg/mL
- MIC prior to passage (S. aureus; procedure of Example 1): 125 µg/mL
- MIC post-passage (P. aeruginosa; after 30 consecutive days passage): 4000 µg/mL
- MIC prior to passage (P. aeruginosa; starting concentration raised to 15 mg/ml, procedure of Example 1): 4000 µg/mL

Compound: RPRVSRRRRRRGGRRRRTLISWIKNKRKQ (RPRVSRRRRRRGGRRRRTLISWIKNKRKQ) [Prottatin]
- minimum concentration required to inhibit bacterial growth, P.a 6284 (P. aeruginosa 6294 [1]): 500 µg/mL
- minimum concentration required to inhibit bacterial growth, P.a 15442 (P. aeruginosa 15442 [2]): 1000 µg/mL
- minimum concentration required to inhibit bacterial growth, S.a. 31 (S. aureus 31 [3]): 1000 µg/mL
- % reduction at 10 min (P. aeruginosa 6294 [7]): 97 ± 5 (6) %
- % reduction at 5 hrs (P. aeruginosa 6294 [7]): 57 ± 39 (6) %
- % reduction at 10 min (S. aureus 31 [8]): 64 ± 18 (6) %
- % reduction at 5 hrs (S. aureus 31 [8]): 43 ± 33 (6) %
- minimum concentration required to inhibit bacterial growth, S.a. CK5 (S. aureus CK5 [4]): 500 µg/mL
- % reduction at 10 min (P. aeruginosa 15442 [9]): 94 ± 4 (8) %
- % reduction at 5 hrs (P. aeruginosa 15442 [9]): 63 ± 32 (7) %
- % reduction at 10 min (S. aureus CK5 [10]): 6 ± 62 (7) %
- % reduction at 5 hrs (S. aureus CK5 [10]): 3 ± 25 (7) %

Compound: CC[C@H](C)[C@H](NC(=O)CN)C(=O)NCC(=O)N[C@@H](C)C(=O)N[C@H](C(=O)N[C@@H](CC(C)C)C(=O)N[C@@H](CCCCN)C(=O)N[C@H](C(=O)N[C@@H](CC(C)C)C(=O)N[C@H](C(=O)N[C@H](C(=O)NCC(=O)N[C@@H](CC(C)C)C(=O)N1CCC[C@H]1C(=O)N[C@@H](C)C(=O)N[C@@H](CC(C)C)C(=O)N[C@H](C(=O)N[C@@H](CO)C(=O)N[C@@H](Cc1c[nH]c2ccccc12)C(=O)N[C@H](C(=O)N[C@@H](CCCCN)C(=O)N[C@@H](CCCNC(=N)N)C(=O)N[C@@H](CCCCN)C(=O)N[C@@H](CCCNC(=N)N)C(=O)N[C@@H](CCC(N)=O)C(=O)N[C@@H](CCC(N)=O)C(N)=O)[C@@H](C)CC)[C@@H](C)CC)[C@@H](C)O)[C@@H](C)O)C(C)C)C(C)C [Mellitin]
- minimum concentration required to inhibit bacterial growth, P.a 6284 (P. aeruginosa 6294 [1]): R (R = resistant, highest concentration of peptide = 1000 ug/Ml)
- hemolysis of red blood cells (FIG. 1, % lysis relative to water) (sheep red blood cells): extensive hemolysis
- minimum concentration required to inhibit bacterial growth, S.a. 31 (S. aureus 31 [3]): 15 µg/mL
